Results reported in patent publication US10428080B2, “TBK/IKK inhibitor compounds and uses thereof” (Merck Patent GmbH, priority 2015, dated 2019).
Structures can show the parent of a compound that is named as a salt. Where two headings read alike, the source gives them in different places.

Key:
IKKε = molecular target: T1, IKKε (Homo sapiens, UniProt Q14164); experiment: IKKe Biochemical Assay; conditions: read-out: IKKε IC50
T1 sequence (Q14164 1-716): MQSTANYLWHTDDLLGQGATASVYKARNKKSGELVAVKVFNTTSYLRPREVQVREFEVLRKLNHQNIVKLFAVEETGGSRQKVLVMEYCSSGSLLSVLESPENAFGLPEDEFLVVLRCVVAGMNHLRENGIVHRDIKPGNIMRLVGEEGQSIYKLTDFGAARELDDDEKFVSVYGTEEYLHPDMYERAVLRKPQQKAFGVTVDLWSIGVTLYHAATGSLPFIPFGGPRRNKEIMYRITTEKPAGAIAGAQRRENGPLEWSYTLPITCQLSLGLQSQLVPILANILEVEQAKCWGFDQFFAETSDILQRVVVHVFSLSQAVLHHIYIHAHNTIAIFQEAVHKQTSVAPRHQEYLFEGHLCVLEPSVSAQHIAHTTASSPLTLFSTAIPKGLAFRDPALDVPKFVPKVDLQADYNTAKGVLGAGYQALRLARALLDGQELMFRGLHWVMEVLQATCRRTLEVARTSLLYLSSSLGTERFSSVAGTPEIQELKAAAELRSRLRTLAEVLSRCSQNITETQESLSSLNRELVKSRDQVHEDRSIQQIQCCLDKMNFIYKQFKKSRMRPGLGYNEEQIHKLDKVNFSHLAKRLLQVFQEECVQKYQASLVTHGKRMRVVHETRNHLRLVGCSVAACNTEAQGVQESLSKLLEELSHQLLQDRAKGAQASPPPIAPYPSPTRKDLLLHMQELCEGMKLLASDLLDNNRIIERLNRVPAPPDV
Summary of the method: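 Activity was measured as mobility-shift separation of phosphorylated from unphosphorylated substrate on a LabChip EZ Reader. Compound was titrated from 30 uM final in 10 points, 1:4 steps, with 1% DMSO, and enzyme plus substrate reacted 90 min at 25° C before stop buffer. Control wells held 10 uM staurosporine.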

TBK1 = molecular target: T2, TBK1 (Homo sapiens, UniProt Q9UHD2); experiment: TBK Biochemical Assay; conditions: read-out: TBK1 IC50
T2 sequence (Q9UHD2 1-729): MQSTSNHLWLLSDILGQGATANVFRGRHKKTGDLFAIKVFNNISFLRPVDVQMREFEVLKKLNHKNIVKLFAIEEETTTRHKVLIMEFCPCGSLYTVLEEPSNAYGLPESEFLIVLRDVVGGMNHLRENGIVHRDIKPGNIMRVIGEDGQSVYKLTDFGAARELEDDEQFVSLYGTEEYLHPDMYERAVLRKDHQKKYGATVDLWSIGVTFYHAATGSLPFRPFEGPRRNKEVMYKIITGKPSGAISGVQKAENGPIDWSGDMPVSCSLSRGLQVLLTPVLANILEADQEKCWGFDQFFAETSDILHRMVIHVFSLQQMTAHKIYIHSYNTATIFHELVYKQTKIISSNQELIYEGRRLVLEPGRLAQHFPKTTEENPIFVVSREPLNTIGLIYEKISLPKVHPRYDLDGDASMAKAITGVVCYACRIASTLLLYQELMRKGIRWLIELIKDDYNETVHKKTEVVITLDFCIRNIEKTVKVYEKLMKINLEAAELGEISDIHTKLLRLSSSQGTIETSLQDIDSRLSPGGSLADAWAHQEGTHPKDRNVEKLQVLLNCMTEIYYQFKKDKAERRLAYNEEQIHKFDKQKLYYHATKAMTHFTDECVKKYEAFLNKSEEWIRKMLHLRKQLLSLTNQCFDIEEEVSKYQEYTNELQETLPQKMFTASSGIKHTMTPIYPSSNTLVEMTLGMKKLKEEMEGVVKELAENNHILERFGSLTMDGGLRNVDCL
Summary of the method: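 Caliper LabChip mobility-shift readout of substrate and product after 90 min of TBK1 reaction at 25° C and stop-buffer addition. Compounds tested in 1:4 serial dilution over 10 points from 30 uM final at 1% DMSO; staurosporine 10 uM final defines full inhibition.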

[1] = test system: phosphorylation of the IRF-3 protein in MDA-MB-468 cells; experiment: pIRF3 immunocytochemistry cell based assay; conditions: Homo sapiens
Summary of the method: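 After 2 h stimulation with Poly(I:C) (10 ug/ml), following 1 h compound pre-treatment (10-point, 3-fold dilution, top 10 uM), MDA-MB-468 cells were fixed and stained with anti-pIRF3 antibody. pIRF3 fluorescence was normalized to PI staining or cell count on an Acumen cytometer. IC50 curves were derived from this.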

[2] = MDA-MB-468 cells, Poly(I:C) stimulation, read-out: pIRF3 IC50
[3] = MDA-MB-468, read-out: pIRF3 IC50

CN(C)C(=O)c1ccc(-c2cc3ncc(F)c(-c4ccc(NC5CCOCC5)c(C#N)c4)c3o2)c(F)c1 [Compound 300, 4-(7-[3-cyano-4-[(oxan-4-yl)amino]phenyl]-6-fluorofuro[3,2-b]pyridin-2-yl)-3-fluoro-N,N-dimethylbenzamide]
IC50 (IKKε): 100 to 1000 nM | IC50 (TBK1): 100 to 1000 nM | IC50 [1, 2]: 1000 to 5000 nM

CN(C)C(=O)c1ccc(-c2cc3ncc(F)c(-c4ccc(OC5CCOCC5)c(C#N)c4)c3o2)c(F)c1 [Compound 301, 4-[7-[3-cyano-4-(oxan-4-yloxy)phenyl]-6-fluorofuro[3,2-b]pyridin-2-yl]-3-fluoro-N,N-dimethylbenzamide]
IC50 (IKKε): < 100 nM | IC50 (TBK1): < 100 nM | IC50 [1, 2]: 1000 to 5000 nM

CN(CCO)C(=O)c1ccc(-c2cc3ncc(F)c(-c4ccc(OC5CCOCC5)c(C#N)c4)c3o2)c(F)c1 [Compound 302, 4-[7-[3-cyano-4-(oxan-4-yloxy)phenyl]-6-fluorofuro[3,2-b]pyridin-2-yl]-3-fluoro-N-(2-hydroxyethyl)-N-methylbenzamide]
IC50 (IKKε): < 100 nM | IC50 (TBK1): < 100 nM | IC50 [1, 2]: 100 to 1000 nM

CN(CCO)C(=O)c1ccc(-c2cc3ncc(F)c(-c4ccc(NC5CCOCC5)c(C#N)c4)c3o2)c(F)c1 [Compound 303, 4-(7-[3-cyano-4-[(oxan-4-yl)amino]phenyl]-6-fluorofuro[3,2-b]pyridin-2-yl)-3-fluoro-N-(2-hydroxyethyl)-N-methylbenzamide]
IC50 (IKKε): 100 to 1000 nM | IC50 (TBK1): 100 to 1000 nM | IC50 [1, 2]: 100 to 1000 nM

COc1cc(C(=O)N(C)CCO)ccc1-c1cc2ncc(Cl)c(-c3ccc(OC4CCOCC4)c(C#N)c3)c2o1 [Compound 304, 4-[6-chloro-7-[3-cyano-4-(oxan-4-yloxy)phenyl]furo[3,2-b]pyridin-2-yl]-N-(2-hydroxyethyl)-3-methoxy-N-methylbenzamide]
IC50 (IKKε): 100 to 1000 nM | IC50 (TBK1): 100 to 1000 nM | IC50 [1, 2]: 1000 to 5000 nM

COc1nc(C(=O)N(C)C)ccc1-c1cc2nccc(-c3ccc(N4CC[C@@H](F)C4)c(C#N)c3)c2o1 [Compound 313, 5-{7-[3-Cyano-4-((R)-3-fluoro-pyrrolidin-1-yl)-phenyl]-furo[3,2-b]pyridin-2-yl}-6-methoxy-pyridine-2-carboxylic acid dimethylamide]
IC50 (IKKε): < 100 nM | IC50 (TBK1): < 100 nM | IC50 [1, 2]: 100 to 1000 nM

COc1nc(C(=O)N(C)C)ccc1-c1cc2nccc(-c3ccc(N4CC[C@H](F)C4)c(C#N)c3)c2o1 [Compound 314, 5-{7-[3-Cyano-4-((S)-3-fluoro-pyrrolidin-1-yl)-phenyl]-furo[3,2-b]pyridin-2-yl}-6-methoxy-pyridine-2-carboxylic acid dimethylamide]
IC50 (IKKε): < 100 nM | IC50 (TBK1): < 100 nM | IC50 [1, 2]: 100 to 1000 nM

COc1cc(C(=O)N(C)C)cnc1-c1cc2nccc(-c3ccc(NC4CCOCC4)c(C#N)n3)c2o1 [Compound 315, 6-(7-[6-cyano-5-[(oxan-4-yl)amino]pyridin-2-yl]furo[3,2-b]pyridin-2-yl)-5-methoxy-N,N-dimethylpyridine-3-carboxamide hydrochloride]
IC50 (IKKε): < 100 nM | IC50 (TBK1): < 100 nM | IC50 [1, 3]: 100 to 1000 nM

COc1cc(C(=O)N(C)C)cnc1-c1cc2nccc(-c3ccc(OC4CCOCC4)c(C#N)n3)c2o1 [Compound 316, 6-[7-[6-cyano-5-(oxan-4-yloxy)pyridin-2-yl]furo[3,2-b]pyridin-2-yl]-5-methoxy-N,N-dimethylpyridine-3-carboxamide]
IC50 (IKKε): < 100 nM | IC50 (TBK1): < 100 nM | IC50 [1, 2]: 100 to 1000 nM

COc1cc(C(=O)N(C)C)cnc1-c1cc2ncc(F)c(-c3ccc(OC4CCOCC4)c(C#N)c3)c2o1 [Compound 317, 6-(7-(3-cyano-4-(tetrahydro-2H-pyran-4-yloxy)phenyl)-6-fluorofuro[3,2-b]pyridin-2-yl)-5-methoxy-N,N-dimethylnicotinamide]
IC50 (IKKε): < 100 nM | IC50 (TBK1): < 100 nM | IC50 [1, 2]: 100 to 1000 nM

COc1cc(C(=O)N(C)CCO)cnc1-c1cc2nccc(-c3ccc(NC4CCOCC4)c(C#N)c3)c2o1 [Compound 318, 6-(7-(3-cyano-4-(tetrahydro-2H-pyran-4-ylamino)phenyl)furo[3,2-b]pyridin-2-yl)-N-(2-hydroxyethyl)-5-methoxy-N-methylnicotinamide]
IC50 (IKKε): < 100 nM | IC50 (TBK1): < 100 nM | IC50 [1, 2]: 100 to 1000 nM

COc1cc(C(=O)N(C)C)cnc1-c1cc2ncc(C)c(-c3ccc(NC4CCOCC4)c(C#N)n3)c2o1 [Compound 322, 6-(7-(6-cyano-5-(tetrahydro-2H-pyran-4-ylamino)pyridin-2-yl)-6-methylfuro[3,2-b]pyridin-2-yl)-5-methoxy-N,N-dimethylnicotinamide]
IC50 (IKKε): 1000 to 5000 nM | IC50 (TBK1): 100 to 1000 nM | IC50 [1, 2]: 1000 to 5000 nM

COc1cc(C(=O)N(C)C)ccc1-c1cc2nccc(-c3cnc(NC4CCOCC4)c(C#N)c3)c2o1 [Compound 324, 4-(7-(5-cyano-6-(tetrahydro-2H-pyran-4-ylamino)pyridin-3-yl)furo[3,2-b]pyridin-2-yl)-3-methoxy-N,N-dimethylbenzamide]
IC50 (IKKε): < 100 nM | IC50 (TBK1): < 100 nM | IC50 [1, 2]: 100 to 1000 nM

COc1cc(C(=O)N(C)C)ncc1-c1cc2nccc(-c3ccc(NC4CCOCC4)c(C#N)c3)c2o1 [Compound 325, 5-(7-[3-cyano-4-[(oxan-4-yl)amino]phenyl]furo[3,2-b]pyridin-2-yl)-4-methoxy-N,N-dimethylpyridine-2-carboxamide]
IC50 (IKKε): < 100 nM | IC50 (TBK1): < 100 nM | IC50 [1, 3]: 100 to 1000 nM

COc1cc(C(=O)N(C)C)ncc1-c1cc2nccc(-c3ccc(OC4CCOCC4)c(C#N)c3)c2o1 [Compound 326, 5-[7-[3-cyano-4-(oxan-4-yloxy)phenyl]furo[3,2-b]pyridin-2-yl]-4-methoxy-N,N-dimethylpyridine-2-carboxamide]
IC50 (IKKε): < 100 nM | IC50 (TBK1): < 100 nM | IC50 [1, 2]: < 100 nM

COc1cc(C(=O)N(C)CCO)cnc1-c1cc2nccc(-c3ccc(OC4CCOCC4)c(C#N)n3)c2o1 [Compound 327, 6-[7-[6-cyano-5-(oxan-4-yloxy)pyridin-2-yl]furo[3,2-b]pyridin-2-yl]-N-(2-hydroxyethyl)-5-methoxy-N-methylpyridine-3-carboxamide hydrochloride]
IC50 (IKKε): < 100 nM | IC50 (TBK1): < 100 nM | IC50 [1, 3]: < 100 nM

COc1cc(C(=O)N(C)CCO)cnc1-c1cc2nccc(-c3ccc(OC4CCOCC4)c(C#N)c3)c2o1 [Compound 328, 6-[7-[3-cyano-4-(oxan-4-yloxy)phenyl]furo[3,2-b]pyridin-2-yl]-N-(2-hydroxyethyl)-5-methoxy-N-methylpyridine-3-carboxamide]
IC50 (IKKε): < 100 nM | IC50 (TBK1): < 100 nM | IC50 [1, 2]: < 100 nM

COc1cc(C(=O)N(C)C)cnc1-c1cc2ncc(F)c(-c3ccc(NC4CCOCC4)c(C#N)c3)c2o1 [Compound 329, 6-(7-[3-cyano-4-[(oxan-4-yl)amino]phenyl]-6-fluorofuro[3,2-b]pyridin-2-yl)-5-methoxy-N,N-dimethylpyridine-3-carboxamide]
IC50 (IKKε): 100 to 1000 nM | IC50 (TBK1): < 100 nM | IC50 [1, 2]: 100 to 1000 nM

COc1cc(C(=O)N(C)CCO)cnc1-c1cc2ncc(F)c(-c3ccc(OC4CCOCC4)c(C#N)c3)c2o1 [Compound 334, 6-[7-[3-cyano-4-(oxan-4-yloxy)phenyl]-6-fluorofuro[3,2-b]pyridin-2-yl]-N-(2-hydroxyethyl)-5-methoxy-N-methylpyridine-3-carboxamide]
IC50 (IKKε): < 100 nM | IC50 (TBK1): < 100 nM | IC50 [1, 2]: 100 to 1000 nM
